The values that follow come from patent US6919365B2, “Imidazolidinedione derivatives and use thereof as drugs” (Senju Pharmaceutical Co., Ltd., priority 2001, dated 2005).

In one assay the target is human lung tryptase. Kind of assay: Tryptase inhibition activity (fluorogenic substrate Boc-Val-Pro-Arg-MCA). Format: biochemical. To be noted: pH7.1, 30° C., 30 minutes. As to the method:
Then, the tryptase inhibition activity was measured according to the method of Muramatsu et al. (Biol. Chem. Hoppe-Seyler, vol.369, pp617(1988)). That is, 62.5 μL of a solution adjusted so that the enzyme activity of human lung tryptase (manufactured by Sigma) became 7.9 μUnit with 0.1M phosphate buffer-1.5M NaCl (pH7.1), was added to 2.5 μL of a test substance dissolved in DMSO, a temperature was retained at 30° C. for 5 minutes, and 125 μL of 0.6mM Boc-Val-Pro-Arg-MCA. HCl (manufactured by BACHEM)/0.1M phosphate buffer (pH7.1) as a substrate was added to obtain a reaction solution. The reaction solution was set at a multi-well plate reader CYTOFLUOR Series 4000 (manufactured by Perceptive Biosystems), and a change in the fluorescent intensity was measured at 30° C. for 30 minutes with time (excitation wavelength 360 nm, detection wavelength 450 nm). As a control, 2.5 μL of DMSO containing no test substance was used, and treated and measured similarly. As a blank, 0.1M phosphate buffer-1.5M NaCl (pH7.1) was added in place of a tryptase solution, and treated and measured similarly.
A tryptase inhibition rate (%) was obtained by calculating a slope (S) of an approximation straight line for each test material, a slope (C) of an approximation straight line for a control, a slope (Bs) of an approximation straight line for a blank of each test substance, and a slope (Bc) of an approximation straight line for a blank of a control from a change in the fluorescent intensity, and calculating from the following equation. Inhibition rate (%)=[1−(S−Bs)/(C−Bc)]×100 Experimental Results
(§1) Regarding the compounds of the present invention, each 50% inhibition concentration (IC50) was calculated from the chymase and tryptase inhibition activity obtained by the aforementioned method.

The target in assay [1] is T1, recombinant human chymase (Homo sapiens, UniProt P23946).
T1 sequence (P23946 22-247): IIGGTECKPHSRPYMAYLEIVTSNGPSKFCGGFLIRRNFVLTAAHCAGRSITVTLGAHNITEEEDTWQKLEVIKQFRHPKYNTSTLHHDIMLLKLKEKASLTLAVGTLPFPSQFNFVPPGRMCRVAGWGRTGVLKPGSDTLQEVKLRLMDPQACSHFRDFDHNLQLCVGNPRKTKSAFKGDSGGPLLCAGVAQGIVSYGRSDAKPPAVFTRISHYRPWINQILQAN
In words: Chymase inhibition activity (fluorogenic substrate Suc-Ala-Ala-Pro-Phe-MCA). Format: biochemical. To be noted: 30° C., 30 minutes. As to the method: The chymase inhibition activity was measured according to the method of Kato et al. (J. Biochem., Vol.103, pp820(1988)). That is, 72.5 μL of a solution adjusted so that the enzyme activity of recombinant human chymase (JP-A No.10-87567) became 2.3 μUnit with HEPES buffer, was added to 2.5 μL of a test substance dissolved in dimethyl sulfoxide (DMSO), a temperature was retained at 30° C. for 5 minutes, and 125 μL of 0.6 mM Suc-Ala-Ala-Pro-Phe-MCA (manufactured by Peptide Institute Inc.)/Tris buffer as a substrate was added to obtain a reaction solution. The reaction solution was set at a multi-well plate reader CYTOFLUOR Series 4000 (manufactured by Perceptive Biosystems), and a change in the fluorescent intensity was measured at 30° C. for 30 minutes with time (excitation wavelength 360 nm, detection wavelength 450 nm).
As a control, 2.5 μL of DMSO containing no test substance was used, and this was treated and measured similarly. As a blank, a Tris hydrochloric acid buffer was added instead of a chymase solution, and treated and measured similarly.
The chymase inhibition rate (%) was obtained by calculating a slope (S) of an approximation straight line for each test substance, a slope (C) of an approximation straight line for a control, a slope (Bs) of an approximation straight line for a blank of each test substance, and a slope (Bc) of approximation straight line for a blank of a control from a change in the fluorescent intensity, and calculating from the following equation. Inhibition rate (%)=[1−(S−Bs)/(C−Bc)]×100
as §1

Assay [2] has as its system rat mast cells (intraperitoneal cell suspension, PEC). In words: Rat mast cell histamine release inhibition test. In kind it is cell-based. To be noted: for Inhibition rate (%) of release of histamine from mast cells: phosphatidylserine and concanavalin A stimulated. How it is done:
A rat was killed by exsanguinations under ether anesthesia, and 30 mL of a buffer for mast cells (150 mM NaCl, 3.7 mM KCl, 3.0 mM Na2HPO4, 1 mM CaCl2, 5.6 mM glucose) was injected intraperitoneally. An abdominal part was massaged for 90 seconds, and a suspension of intraperitoneal cell was taken. A suspension of an intraperitoneal cell collected from 5 animals was centrifuged at 100 G at 4° C. for 5 minutes, a buffer for mast cells was added, washed three times and, finally, adjusted so that the number of mast cells became 3 to 5×10^5 cells/mL (hereinafter, this solution is abbreviated as PEC).
Compound 5 was dissolved in DMSO to prepare a test drug solution at each concentration (final DMSO concentration 0.8%). 100 μL of the test drug solution was added to 400 μL of the prepared PEC, and pre-incubated at 37° C. for 15 minutes. After pre-incubation, each 50 μL of a solution of phosphatidylserine (10 μg/ml) and concanavalin A(15 μg/ml) which is a histamine-releasing substance was added, and further incubated for 20 minutes. 1.4 mL of an ice-cooled buffer for mast cells was added to stop the reaction, and centrifuged at 250 G at 4° C. for 10 minutes. An amount of the histamine supernatant was quantitated using a fluorescent method. That is, 20 μL of 1N NaOH was added to 40 μL of the supernatant, 20 μL of a 1% o-phthalaldehyde solution in methanol was further added, and allowed to stand at room temperature for 5 minutes. Thereafter, 20 μL of 3N hydrochloric acid was added, and the fluorescent intensity was measured at an excitation wavelength of 350 nm and a fluorescent wavelength of 450 nm to obtain an amount of histamine.
A histamine release inhibition rate (%) was calculated from the following equation: Inhibition rate (%)=[1−(S−B)/(C−B)]×100 • S: amount of histamine in the supernatant, C: amount of histamine in control, B: amount of histamine in blank Test Results

The IC50 is the concentration needed to halve the response being measured.

As for “1-(3-Chlorobenzyl)-5,5-dimethyl-3-naphthylcarbonylimidazolidine-2,4-dione [Compound 28]”, the 50% inhibitory concentration (IC50) (against human lung tryptase; in assay [1]) was 2.2 µM throughout.
As for “1-Isobutyl-3-naphthylcarbonyl-5,5-diphenylimidazolidine -2,4-dione [Compound 23]”, the IC50 on human lung tryptase amounted to 4.4 µM; in assay [1] it was 0.28 µM.
For “1-Methyl-3-naphthylcarbonyl-5,5-diphenylimidazolidine-2,4-dione [Compound 22]”, the results for the IC50 (at human lung tryptase; in assay [1]) were 0.089 µM and 3.5 µM, respectively.
The matching figures for “3-Naphthylcarbonyl-1,3-diazaspiro[4.5]decane-2,4-dione [Compound 34]”: 0.28 µM and 32 µM.
Turning to “3-Naphthylcarbonyl-2,4-dioxo-5,5-diphenylimidazolidinylacetic acid [Compound 5]”, the “Inhibition of release of histamine (in words)” value in assay [2] (8 to 100 μM) is recorded as “inhibited release of histamine concentration-dependently”. For the same compound, the “Inhibition rate (%) of release of histamine from mast cells” value in assay [2] (test drug concentration 8 μM) was 28%; in assay [2] (test drug concentration 40 μM), 59%; in assay [2] (test drug concentration 80 μM), 78%; in assay [2] (test drug concentration 100 μM), 83%. Also, the concentration for half-maximal inhibition (IC50) against human lung tryptase was 0.97 µM; in assay [1] it was 1.2 µM.
Turning to “3-Naphthylcarbonyl-5,5-diphenylimidazolidine-2,4-dione [Compound 2]”, the results for the half-inhibitory concentration (IC50) (at human lung tryptase; in assay [1]) were 0.046 µM and 0.34 µM, respectively.
The matching figures for “4-(5,5-Dimethyl-3-naphthylcarbonyl-2,4-dioxoimidazolidinylmethyl)benzonitrile [Compound 27]”: 7.1 µM and 0.54 µM.
As to “5,5- Dimethyl-3-naphthylcarbonylimidazolidine-2,4-dione [Compound 8]”, the 50% inhibitory concentration (IC50) was 3.2 µM on human lung tryptase and 30 µM in assay [1].
The matching figures for “5,5-Dimethyl-1,3-bisnaphthylcarbonyl imidazolidine-2,4-dione [Compound 33]”: 1.5 µM and 1.8 µM.
The matching figures for “5,5-Dimethyl-3-naphthylcarbonyl-1,3-oxazolidine-2,4-dione [Compound 9]”: 1 µM and 0.73 µM.
As for “5,5-Dimethyl-3-naphthylcarbonyl-1-(2-oxo-2-phenylethyl)imidazolidine-2,4-dione [Compound 30]”, the half-inhibitory concentration (IC50) worked out at 7.2 µM against human lung tryptase and 3.3 µM in assay [1].
Turning to “5-Methyl-3-naphthylcarbonyl-2,4-dioxo-5-phenylimidazolidinylacetic acid [Compound 16]”, the concentration for half-maximal inhibition (IC50) on human lung tryptase came out at 1.8 µM; in assay [1] it was 0.91 µM.
As for `O=C1NC(c2ccccc2)(c2ccccc2)C(=O)N1C(=O)c1ccc2ccccc2c1` [Compound 1, 3-(2-Naphthylcarbonyl)-5,5-diphenylimidazolidine-2,4-dione], the IC50 against human lung tryptase is 0.39 µM; in assay [1] it was 0.066 µM.
The matching figures for `CC1(c2ccccc2)NC(=O)N(C(=O)c2cccc3ccccc23)C1=O` (centres unmarked) [Compound 7]: 0.37 µM and 6.5 µM.
In the case of `CC1(c2ccccc2)C(=O)N(C(=O)c2cccc3ccccc23)C(=O)N1Cc1cccc(Cl)c1` (centres unmarked) [Compound 25, 1-(3-Chlorobenzyl)-5-methyl-3-naphthylcarbonyl-5-phenylimidazolidine-2,4-dione], the IC50 turned out to be 86 µM against human lung tryptase and 0.58 µM in assay [1].
The matching figures for “Ethyl 2-(3-naphthylcarbonyl-2,4-dioxo-5,5-diphenylimidazolidinyl)acetate [Compound 3]”: 0.93 µM and 1 µM.
The matching figures for “Tert-butyl (5,5-dimethyl-3-naphthylcarbonyl-2,4-dioxoimidazolidinyl)acetate [Compound 13]”: 1.6 µM and 2.7 µM.
Regarding “tert-Butyl (5-methyl-3-naphthylcarbonyl-2,4-dioxo-5-phenylimidazolidinyl)acetate [Compound 14]”, the values for the IC50 (on human lung tryptase; in assay [1]) were 1.6 µM and 0.26 µM, respectively.
